# Reference: ChEMBL document CHEMBL5653631, “A Potent and Selective ULK1 Inhibitor Suppresses Autophagy and Sensitizes Cancer Cells to Nutrient Stress” (iScience, 2018)
# What was measured:
# [1] = biological target: Death-associated protein kinase 1 (Homo sapiens) (UniProt P53355); test: Inhibition of human recombinant DAPK1 at 40 nM in presence of ATP by radiometric assay relative to control
# [2] = biological target: Interleukin-1 receptor-associated kinase 1 (Homo sapiens) (UniProt P51617); test: Inhibition of human recombinant IRAK1 at 40 nM related to control ULK1
# Sequence of Interleukin-1 receptor-associated kinase 1 (Homo sapiens) (P51617 whole entry, looked up): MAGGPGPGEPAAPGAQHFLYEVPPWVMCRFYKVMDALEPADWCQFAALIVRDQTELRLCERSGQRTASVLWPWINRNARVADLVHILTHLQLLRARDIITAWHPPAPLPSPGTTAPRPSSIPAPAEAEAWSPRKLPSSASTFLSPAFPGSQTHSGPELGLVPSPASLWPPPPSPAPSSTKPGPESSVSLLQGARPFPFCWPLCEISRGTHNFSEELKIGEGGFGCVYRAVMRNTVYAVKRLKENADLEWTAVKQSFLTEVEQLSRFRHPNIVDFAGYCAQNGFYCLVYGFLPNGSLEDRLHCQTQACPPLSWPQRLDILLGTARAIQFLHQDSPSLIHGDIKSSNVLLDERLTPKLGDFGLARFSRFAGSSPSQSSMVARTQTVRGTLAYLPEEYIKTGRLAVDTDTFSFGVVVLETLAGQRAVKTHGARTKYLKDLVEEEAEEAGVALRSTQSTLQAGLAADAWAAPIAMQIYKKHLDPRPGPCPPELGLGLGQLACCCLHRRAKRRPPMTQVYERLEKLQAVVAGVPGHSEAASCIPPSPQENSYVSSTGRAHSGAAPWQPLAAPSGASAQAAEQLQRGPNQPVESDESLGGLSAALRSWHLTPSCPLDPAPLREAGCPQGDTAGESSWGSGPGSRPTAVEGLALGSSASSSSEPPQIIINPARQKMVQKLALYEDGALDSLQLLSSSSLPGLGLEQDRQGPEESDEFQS
# [3] = biological target: T1, Ephrin type-B receptor 1 (Homo sapiens) (UniProt P54762); test: Inhibition of human recombinant EphB1 at 15 nM in presence of ATP by radiometric assay relative to control
# T1 sequence (whole entry): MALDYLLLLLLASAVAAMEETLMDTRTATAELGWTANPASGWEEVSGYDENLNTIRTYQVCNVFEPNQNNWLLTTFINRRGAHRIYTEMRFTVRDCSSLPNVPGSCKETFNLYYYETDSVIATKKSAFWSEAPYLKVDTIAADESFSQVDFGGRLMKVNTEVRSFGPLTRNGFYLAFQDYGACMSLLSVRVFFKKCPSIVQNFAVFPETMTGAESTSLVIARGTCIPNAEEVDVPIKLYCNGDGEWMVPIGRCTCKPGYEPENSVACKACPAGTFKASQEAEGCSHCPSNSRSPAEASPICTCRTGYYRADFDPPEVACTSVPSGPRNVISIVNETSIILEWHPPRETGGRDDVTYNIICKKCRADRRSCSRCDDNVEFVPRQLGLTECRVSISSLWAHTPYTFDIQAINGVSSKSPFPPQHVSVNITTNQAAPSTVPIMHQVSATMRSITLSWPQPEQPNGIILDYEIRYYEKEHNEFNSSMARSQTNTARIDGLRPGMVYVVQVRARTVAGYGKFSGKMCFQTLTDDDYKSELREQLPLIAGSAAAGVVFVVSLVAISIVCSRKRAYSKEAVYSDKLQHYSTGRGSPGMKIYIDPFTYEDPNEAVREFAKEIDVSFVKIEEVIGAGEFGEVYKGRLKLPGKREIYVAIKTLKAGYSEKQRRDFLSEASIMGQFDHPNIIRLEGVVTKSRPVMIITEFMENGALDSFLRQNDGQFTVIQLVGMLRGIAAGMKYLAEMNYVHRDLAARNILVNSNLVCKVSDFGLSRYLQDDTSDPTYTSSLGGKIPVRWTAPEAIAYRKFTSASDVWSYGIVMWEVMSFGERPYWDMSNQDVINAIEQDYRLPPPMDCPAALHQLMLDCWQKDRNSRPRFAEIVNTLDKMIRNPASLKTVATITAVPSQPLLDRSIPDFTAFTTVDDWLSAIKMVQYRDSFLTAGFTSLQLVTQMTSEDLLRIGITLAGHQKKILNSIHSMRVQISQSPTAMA
# [4] = biological target: T2, Protein kinase C epsilon type (Homo sapiens) (UniProt Q02156); test: Inhibition of human recombinant PKCe at 15 nM in presence of ATP by radiometric assay relative to control
# T2 sequence (whole entry): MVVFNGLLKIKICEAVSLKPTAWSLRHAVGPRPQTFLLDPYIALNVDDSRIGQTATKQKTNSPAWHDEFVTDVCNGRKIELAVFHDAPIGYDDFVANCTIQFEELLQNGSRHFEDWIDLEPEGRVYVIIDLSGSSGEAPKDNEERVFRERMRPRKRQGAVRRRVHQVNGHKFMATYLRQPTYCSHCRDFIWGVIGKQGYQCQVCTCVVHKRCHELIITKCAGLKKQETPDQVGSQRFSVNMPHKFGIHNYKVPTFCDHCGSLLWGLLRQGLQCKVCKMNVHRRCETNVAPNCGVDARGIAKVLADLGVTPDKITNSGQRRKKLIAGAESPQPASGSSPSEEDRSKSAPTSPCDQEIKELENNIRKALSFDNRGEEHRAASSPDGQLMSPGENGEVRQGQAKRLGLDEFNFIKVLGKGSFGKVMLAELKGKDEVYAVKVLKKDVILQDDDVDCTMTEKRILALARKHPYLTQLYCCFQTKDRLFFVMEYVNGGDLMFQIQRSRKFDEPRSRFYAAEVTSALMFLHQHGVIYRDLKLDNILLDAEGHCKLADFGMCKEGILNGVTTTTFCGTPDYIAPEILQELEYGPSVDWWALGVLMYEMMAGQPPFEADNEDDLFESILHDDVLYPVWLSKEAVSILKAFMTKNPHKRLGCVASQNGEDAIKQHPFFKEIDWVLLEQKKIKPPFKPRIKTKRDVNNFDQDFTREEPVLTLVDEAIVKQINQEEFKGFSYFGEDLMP
# [5] = biological target: Protein kinase C beta type (Homo sapiens) (UniProt P05771); test: Inhibition of human recombinant PKCb at 15 nM related to control ULK1
# Sequence of Protein kinase C beta type (Homo sapiens) (P05771 2-671 limits assumed): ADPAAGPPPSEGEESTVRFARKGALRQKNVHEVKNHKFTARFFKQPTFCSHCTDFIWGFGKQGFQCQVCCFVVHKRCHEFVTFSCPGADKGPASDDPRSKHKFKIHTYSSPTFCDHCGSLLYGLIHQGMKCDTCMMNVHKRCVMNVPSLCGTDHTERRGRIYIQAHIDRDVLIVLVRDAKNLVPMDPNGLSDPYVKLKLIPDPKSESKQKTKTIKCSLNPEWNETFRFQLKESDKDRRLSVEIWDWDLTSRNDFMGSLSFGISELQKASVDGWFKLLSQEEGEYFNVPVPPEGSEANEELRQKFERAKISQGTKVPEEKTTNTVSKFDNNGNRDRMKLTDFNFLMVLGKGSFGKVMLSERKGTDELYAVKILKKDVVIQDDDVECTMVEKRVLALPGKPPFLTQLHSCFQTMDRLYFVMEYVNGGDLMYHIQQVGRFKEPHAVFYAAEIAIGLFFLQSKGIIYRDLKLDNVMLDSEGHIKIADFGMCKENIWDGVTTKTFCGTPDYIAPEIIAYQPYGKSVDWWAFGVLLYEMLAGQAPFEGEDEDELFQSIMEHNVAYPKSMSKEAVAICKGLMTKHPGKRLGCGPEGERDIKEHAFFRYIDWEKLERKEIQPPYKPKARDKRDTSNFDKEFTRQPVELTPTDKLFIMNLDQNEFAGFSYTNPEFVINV
# [6] = biological target: T3, Tyrosine-protein kinase Mer (Homo sapiens) (UniProt Q12866); test: Inhibition of human recombinant MER at 500 nM related to control ULK1
# T3 sequence (whole entry): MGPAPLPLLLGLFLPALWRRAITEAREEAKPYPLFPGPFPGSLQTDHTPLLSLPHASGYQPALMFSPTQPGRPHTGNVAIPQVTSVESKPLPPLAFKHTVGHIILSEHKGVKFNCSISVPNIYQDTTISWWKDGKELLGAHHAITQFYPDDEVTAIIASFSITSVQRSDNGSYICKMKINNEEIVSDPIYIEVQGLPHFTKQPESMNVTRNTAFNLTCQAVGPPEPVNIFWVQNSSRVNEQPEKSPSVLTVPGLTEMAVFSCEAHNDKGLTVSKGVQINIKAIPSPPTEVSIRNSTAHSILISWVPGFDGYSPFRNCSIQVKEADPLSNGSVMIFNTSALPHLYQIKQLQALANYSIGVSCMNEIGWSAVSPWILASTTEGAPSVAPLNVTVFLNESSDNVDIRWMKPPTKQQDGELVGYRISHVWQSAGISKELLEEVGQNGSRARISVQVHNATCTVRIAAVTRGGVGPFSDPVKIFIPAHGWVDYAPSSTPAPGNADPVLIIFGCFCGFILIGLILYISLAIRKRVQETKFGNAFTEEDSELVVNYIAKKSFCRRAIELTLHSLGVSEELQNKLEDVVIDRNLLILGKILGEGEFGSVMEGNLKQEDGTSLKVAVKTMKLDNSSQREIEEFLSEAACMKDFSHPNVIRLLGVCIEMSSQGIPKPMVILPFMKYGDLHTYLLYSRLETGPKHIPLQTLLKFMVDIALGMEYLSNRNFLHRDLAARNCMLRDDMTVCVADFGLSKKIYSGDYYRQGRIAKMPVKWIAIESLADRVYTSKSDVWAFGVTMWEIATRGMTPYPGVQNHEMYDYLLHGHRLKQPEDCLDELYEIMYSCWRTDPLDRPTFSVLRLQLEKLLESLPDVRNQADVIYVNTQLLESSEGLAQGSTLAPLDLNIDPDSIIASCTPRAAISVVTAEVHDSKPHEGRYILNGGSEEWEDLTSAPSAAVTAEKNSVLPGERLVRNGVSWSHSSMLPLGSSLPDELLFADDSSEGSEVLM
# [7] = biological target: Tau-tubulin kinase 1 (Homo sapiens) (UniProt Q5TCY1); test: Inhibition of human recombinant TTBK1 at 500 nM related to control ULK1
# Sequence of Tau-tubulin kinase 1 (Homo sapiens) (Q5TCY1 whole entry): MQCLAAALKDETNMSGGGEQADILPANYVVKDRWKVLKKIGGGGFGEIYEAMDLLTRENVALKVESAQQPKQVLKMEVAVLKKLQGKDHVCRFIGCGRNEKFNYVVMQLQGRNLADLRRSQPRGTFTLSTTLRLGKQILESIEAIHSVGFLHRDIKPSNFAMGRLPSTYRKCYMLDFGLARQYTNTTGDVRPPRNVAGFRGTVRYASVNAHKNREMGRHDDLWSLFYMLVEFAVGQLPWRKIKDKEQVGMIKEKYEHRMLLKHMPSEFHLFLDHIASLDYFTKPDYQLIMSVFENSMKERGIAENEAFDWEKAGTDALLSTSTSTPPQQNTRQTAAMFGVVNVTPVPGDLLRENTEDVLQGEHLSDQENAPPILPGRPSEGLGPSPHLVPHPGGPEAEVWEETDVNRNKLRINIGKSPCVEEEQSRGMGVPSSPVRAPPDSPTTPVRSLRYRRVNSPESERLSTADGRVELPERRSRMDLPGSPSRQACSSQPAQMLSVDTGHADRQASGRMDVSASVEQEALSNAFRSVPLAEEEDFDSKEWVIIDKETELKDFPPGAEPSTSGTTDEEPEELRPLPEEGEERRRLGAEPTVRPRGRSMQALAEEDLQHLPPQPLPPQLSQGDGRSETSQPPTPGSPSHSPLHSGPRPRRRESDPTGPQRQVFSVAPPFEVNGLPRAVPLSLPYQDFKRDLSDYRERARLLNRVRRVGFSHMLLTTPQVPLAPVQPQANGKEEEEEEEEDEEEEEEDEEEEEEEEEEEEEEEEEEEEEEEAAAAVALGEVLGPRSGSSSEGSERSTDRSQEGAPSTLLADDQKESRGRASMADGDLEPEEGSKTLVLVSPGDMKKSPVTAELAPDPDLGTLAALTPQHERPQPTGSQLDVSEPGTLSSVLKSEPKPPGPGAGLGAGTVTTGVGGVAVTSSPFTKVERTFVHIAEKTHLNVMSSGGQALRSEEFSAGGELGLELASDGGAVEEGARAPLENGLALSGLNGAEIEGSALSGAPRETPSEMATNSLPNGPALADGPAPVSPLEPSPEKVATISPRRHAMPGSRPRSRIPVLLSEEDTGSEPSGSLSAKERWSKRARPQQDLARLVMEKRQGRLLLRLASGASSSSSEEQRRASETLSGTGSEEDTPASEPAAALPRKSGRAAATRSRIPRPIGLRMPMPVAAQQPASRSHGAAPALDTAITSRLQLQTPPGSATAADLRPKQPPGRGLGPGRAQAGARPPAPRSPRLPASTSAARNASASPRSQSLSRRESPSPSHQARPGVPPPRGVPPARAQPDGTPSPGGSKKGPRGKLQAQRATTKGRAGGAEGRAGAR
# Sequence of Death-associated protein kinase 1 (Homo sapiens) (P53355 whole entry, looked up): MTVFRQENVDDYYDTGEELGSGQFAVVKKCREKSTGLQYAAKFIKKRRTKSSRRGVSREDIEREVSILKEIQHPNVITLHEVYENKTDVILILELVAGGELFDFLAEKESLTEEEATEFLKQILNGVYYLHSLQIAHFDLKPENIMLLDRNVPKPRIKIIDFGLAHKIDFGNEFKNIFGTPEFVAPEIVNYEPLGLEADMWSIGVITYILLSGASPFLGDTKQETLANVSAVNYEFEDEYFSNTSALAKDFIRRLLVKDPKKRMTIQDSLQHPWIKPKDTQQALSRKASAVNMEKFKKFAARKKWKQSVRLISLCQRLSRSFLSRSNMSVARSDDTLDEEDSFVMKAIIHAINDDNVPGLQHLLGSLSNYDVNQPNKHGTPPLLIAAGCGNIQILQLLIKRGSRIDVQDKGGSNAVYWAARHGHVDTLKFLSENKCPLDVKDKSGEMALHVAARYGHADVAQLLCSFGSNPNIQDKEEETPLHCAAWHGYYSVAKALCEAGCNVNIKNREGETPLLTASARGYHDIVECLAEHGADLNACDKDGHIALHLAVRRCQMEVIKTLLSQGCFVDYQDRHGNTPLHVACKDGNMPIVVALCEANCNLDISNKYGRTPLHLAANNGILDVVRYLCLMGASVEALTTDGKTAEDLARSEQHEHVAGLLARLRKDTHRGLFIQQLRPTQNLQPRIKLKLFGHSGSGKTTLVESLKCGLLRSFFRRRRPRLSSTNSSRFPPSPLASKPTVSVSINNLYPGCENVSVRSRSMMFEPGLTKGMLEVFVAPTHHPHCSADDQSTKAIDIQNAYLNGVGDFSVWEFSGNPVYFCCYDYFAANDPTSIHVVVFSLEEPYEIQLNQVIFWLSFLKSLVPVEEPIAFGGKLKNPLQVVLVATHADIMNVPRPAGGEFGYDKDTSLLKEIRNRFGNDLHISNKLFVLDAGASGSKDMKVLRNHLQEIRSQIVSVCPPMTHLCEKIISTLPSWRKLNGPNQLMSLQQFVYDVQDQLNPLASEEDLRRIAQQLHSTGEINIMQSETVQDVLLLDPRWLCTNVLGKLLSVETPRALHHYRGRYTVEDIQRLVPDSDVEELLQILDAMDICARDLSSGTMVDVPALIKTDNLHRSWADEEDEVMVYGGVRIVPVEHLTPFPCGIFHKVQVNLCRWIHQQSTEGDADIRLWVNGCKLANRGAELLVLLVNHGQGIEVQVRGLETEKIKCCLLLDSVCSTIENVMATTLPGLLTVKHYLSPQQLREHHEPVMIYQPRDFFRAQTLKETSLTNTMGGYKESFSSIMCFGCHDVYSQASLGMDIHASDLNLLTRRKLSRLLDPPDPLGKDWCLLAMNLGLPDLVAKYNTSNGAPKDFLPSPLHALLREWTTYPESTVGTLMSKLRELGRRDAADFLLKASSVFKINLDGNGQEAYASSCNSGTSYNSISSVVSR
smiles,measurement,setting,value
O=C(N[C@@H](C1CC1)C(F)(F)F)c1cc(-c2cnn3cc(-c4ccc(F)cc4)cnc23)cs1,inhibition,[1],0%
same,fold change (FC),[2],0.1
CC(C)[C@H](NC(=O)c1cc(-c2cnn3cc(-c4ccc(OCCN5CCCCC5)cc4)cnc23)cs1)C(F)(F)F,inhibition,[3],12%
same,inhibition,[4],0%
same,fold change (FC),[5],0
CNC(=O)c1ccccc1Oc1nc(Nc2cc(OC)c(OC)c(OC)c2)ncc1Br,fold change (FC),[6],0.12
same,fold change (FC),[7],0.01
